In patent US20210177814A1, “USE OF GUANABENZ OR DERIVATES THEREOF FOR THE TREATMENT OF TYPE I IFN-DEPENDENT PATHOLOGIES” (INSERM (Institut National de la Santé et de la Recherche …, priority 2018, published 2021):

Target: T1, TLR9 (Mus musculus, UniProt Q9EQU3)
T1 construct: from tissue; host or cells: whole animal: C57BL/6, FVB and FVB GADD34ΔC/ΔC mice
T1 sequence (Q9EQU3 26-1032): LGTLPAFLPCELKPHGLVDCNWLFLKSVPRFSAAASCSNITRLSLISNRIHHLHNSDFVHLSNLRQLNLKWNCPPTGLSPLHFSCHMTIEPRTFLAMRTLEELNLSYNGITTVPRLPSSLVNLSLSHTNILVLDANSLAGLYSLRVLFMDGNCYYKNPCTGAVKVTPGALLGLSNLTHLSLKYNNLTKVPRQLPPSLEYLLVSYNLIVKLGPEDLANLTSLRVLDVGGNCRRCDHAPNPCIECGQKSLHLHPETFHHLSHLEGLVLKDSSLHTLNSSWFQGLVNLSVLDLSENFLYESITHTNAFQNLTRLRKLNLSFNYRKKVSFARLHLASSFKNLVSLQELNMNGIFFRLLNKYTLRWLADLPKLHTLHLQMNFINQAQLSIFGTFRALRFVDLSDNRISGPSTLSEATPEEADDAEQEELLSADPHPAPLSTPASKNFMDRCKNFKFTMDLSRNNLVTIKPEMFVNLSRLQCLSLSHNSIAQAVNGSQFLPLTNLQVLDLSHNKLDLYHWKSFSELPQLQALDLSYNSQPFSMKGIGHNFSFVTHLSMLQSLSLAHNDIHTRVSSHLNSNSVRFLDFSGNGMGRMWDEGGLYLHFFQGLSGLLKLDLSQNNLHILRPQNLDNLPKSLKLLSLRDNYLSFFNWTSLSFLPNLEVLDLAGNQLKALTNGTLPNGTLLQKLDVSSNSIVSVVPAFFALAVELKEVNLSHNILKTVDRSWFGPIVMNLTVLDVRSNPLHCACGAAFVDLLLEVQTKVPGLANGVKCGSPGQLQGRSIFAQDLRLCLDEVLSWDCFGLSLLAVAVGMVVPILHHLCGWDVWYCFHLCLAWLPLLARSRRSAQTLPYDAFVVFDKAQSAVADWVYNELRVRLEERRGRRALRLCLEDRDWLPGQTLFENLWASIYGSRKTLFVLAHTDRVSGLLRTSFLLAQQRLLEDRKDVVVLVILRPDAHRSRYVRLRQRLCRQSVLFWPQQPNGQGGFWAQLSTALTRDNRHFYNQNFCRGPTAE
Experiment: D-galN/CpG ODN 1826 cytokine shock model
Type: in vivo
Procedure: WT and GADD34^ΔC/ΔC mice were injected with D-galN (20 mg/mouse), CpG ODN 1826 or PBS for control mice (50 μg/20 g), GBZ or clonidine (2 mg/kg). (A) Survival of C57/BL6 mice is represented as total percentage of survival after 48 h or in a Kaplan-Meier plot. (B) Survival of FVB (WT) and FVB GADD34^ΔC/ΔC mice is represented as total percentage of survival after 48 h or in a Kaplan-Meier plot. (C) The concentration of circulating TNF-α, IL-10 and IL-6 in C57/BL6 mice was measured after 1 h and/or 3 h of CpG ODN 1826. (D) Liver tissue damage and histology score were blindly determined by a professional anatomopathologist. Statistical significance was assigned on sample comparison by a one-way ANOVA, followed by Tukey range test and on the survival curve using log-rank test, followed by Benjamini-Yekutieli correction (* p<0.05; ** p<0.005; ***p<0.0005.).
Wild type female mice C57BL/6 of 8 weeks of age were injected i.p. with 2 mg/kg of GBZ, clonidine or PBS/DMSO. One hour later, they were injected i.p. with 20 mg/mouse of d-GalN and ODN 1826 50 μg/20 g (or PBS). Mice survival was checked every 12 hours for up to 48 hours. For some experiments, blood sera were collected 1 and 3 h after the injection of D-galN. The serum was used to measure circulating cytokines (TNFα, IL-6, IFNβ IL-10, IL-12). For some experiments, the liver was collected for immunohistochemistry after two days. For i.p. injections, 1 ml syringes and 25 gauge needles were used. Blood was collected from the cheek with a 18 gauge needle; for the TMPD model, no more than 200 μL were collected each time, respecting the ethic statement.
Mouse kidney and liver were fixed in 10% buffered formalin for 24 h, then the tissues were dehydrated and embedded in paraffin. Tissue sections of 3.5 μm were cut using the microtom Leica RM2245. Hematoxylin-eosin staining was effectuated automatically with Leica autostainer XL. Finally, the slides were mounted with entellan and kept at room temperature. Biopsies were analyzed by an anatomopathologist and the clinical score was assigned in a blinded way. Pictures were taken with Nikon Eclipse.
• a) Lobular inflammation • 0—no inflammation, 1—mild lobular inflammation (<10% of liver parenchyma), 2—moderate lobular inflammation (10-50% of liver parenchyma), 3—severe lobular inflammation (>50% of liver parenchyma) • b) Portal inflammation • 0—no portal inflammation, 1—mild portal inflammation (<⅓ of portal tracts), 2—moderate portal inflammation (approximately 50% of portal tracks), 3—severe portal inflammation (>⅔ of portal tracts) • Portal and lobular inflammation score are added=inflammation score • c) Necrosis • 0—No necrosis, 1—<10% necrosis of liver parenchyma, 2—10-25% necrosis of liver parenchyma, 3—25% necrosis of liver parenchyma • Inflammation score and necrosis score are added=Total histologic score

[1] = WT mice, 1 hour after CpG injection, 2 mg/kg
[2] = WT mice, 3 h after CpG injection, 2 mg/kg

With `Clc1cccc(Cl)c1NC1=NCCN1` [clonidine, N-(2,6-dichlorophényl)-4,5-dihydro-1H-imidazol-2-amine] the “survival after 48 h” value (C57BL/6 WT mice, D-galN + CpG ODN 1826, compound 2 mg/kg i.p.) was “not substantially changed”, the “circulating IL-6 plasma concentration” value [1] was “some inhibitory effect” and the “circulating TNF-α plasma concentration” value [1] was “some inhibitory effect”. For the same molecule, the “inhibitory effect on IL-6 production” value [2] was “not observed” and the “inhibitory effect on TNF-α production” value [2] was “not observed”.
